Test results as given in patent US20250034139A1, “AMINE COMPOUNDS HAVING ANTI-INFLAMMATORY, ANTIFUNGAL, ANTIPARASITIC, AND ANTICANCER ACTIVITY” (PHARMA CINQ, LLC, priority 2013, published 2025).

Key:
[1] = test system: THP-1 cells; assay: Example C: compound screen, viable THP-1 cell count after 5 hours +/- LPS; type: cell-based, Human; details: for ability to inactivate pro-inflammatory THP-1 cells, in words (relative to benchmark AC): LPS-treated THP-1 cells
Text: Background: THP-1 is a human acute myeloid leukemia (AML) cell line that can be induced into a macrophage-like cell with vitamin-D3 (vit-D3). In the macrophage, LPS (lipopolysaccharide; endotoxin) stimulation of toll-like receptor 4 (TLR-4) leads to NF-κB activation and secretion of inflammatory cytokines but also the priming of programmed death pathways through RIP and Caspase 8. The balance of this complex regulatory network is dependent on highly specific kinases, enzymes that require ATP. Disruption of either cytosolic pH or ATP availability/energy level uncouples this control network and the can macrophage shift away from production of inflammatory cytokines towards a programmed death event, which has the net effect of limiting inflammatory damage.

[2] = test system: THP-1 cells; assay: Example D: LPS-triggered THP-1 cell death assay, acute/5-hour and chronic/48-hour; type: cell-based, Human; details: for Viable cell percent change, Chronic/48-hour, Mean: 10 ng/ml LPS, 0.1 μM test compound; for activity relative to AC in the LPS-triggered THP-1 cell death assay, in words: 0.1 μM, 5-hour and 48-hour time points
Experimental: Compounds of the invention were tested at 0.1 μM versus AC in the LPS-triggered THP-1 cell death assay. Both acute/5-hour and chronic/48-hour phases of cell death were assessed. Compounds were screened in batches with DMSO as the negative control and AC as the high activity control.

[3] = test system: 4T1 murine breast cancer cells; assay: Example S: in vitro anticancer screen, 4T1 cells, Wst1; type: cell-based, mouse; details: Mus musculus, 4T1, 18 h, 18 hr, Wst1; for viability at 1 µM: read-out: 4T1 1 μM, percent of cancer cell survival relative to vehicle treated cells; for viability at 5 µM: read-out: 4T1 5 μM, percent of cancer cell survival relative to vehicle treated cells
Summary of the method: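 4T1 cells seeded at 1×10^4/well were exposed to compound at 1 μM or 5 μM for 18 hr after plating. Wst1 tetrazolium dye was then added for about 2 hr and absorbance read at 450 nm (reference 630 nm). Values are percent survival relative to vehicle-treated cells.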

[4] = test system: PC3 human prostate cancer cells; assay: Example S: in vitro anticancer screen, PC-3 cells, Wst1; type: cell-based; details: Homo sapiens, PC-3, approximately 20 hours, Wst1, read-out: PC-3, percent of cancer cell survival relative to vehicle treated cells
Summary of the method: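 PC-3 cells, 2×10^4 cells/well, exposed ~20 h to vehicle or compound at 0.4, 0.5 or 2.5 μM as specified per compound. Wst1 dye added for 2 h; absorbance 450 nm (reference 630 nm), triplicates. Values are percent cell survival versus vehicle-treated cells.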

[5] = test system: PC-3 prostate cancer cells; assay: Example T: sensitisation of PC-3 cells to doxorubicin, oxaliplatin, paclitaxel or vincristine, Wst1; type: cell-based, human; details: PC-3 cells, 72 hours; for viability at 0.4 µM: compound 0.4 μM alone; for Doxorubicin 3.5 μM: percent cell survival / Oxaliplatin 100 μM: percent cell survival / Paclitaxel 50 μM: percent cell survival / Vincristine 100 nM: percent cell survival: chemotherapy agent alone normalized to 100%
[6] = test system: imiquimod-induced dermatitis; details: for Ear thickness, Mean ± SEM: imiquimod-treated mice; for Ear thickness, Mean ± SEM / PASI Score, Mean ± SEM: topical ointment 0.06% active drug (dexamethasone 0.03%, tacrolimus 0.1%); for PASI Score, Mean ± SEM: scale 0-12
Experimental: Topical imiquimod (IMQ), a toll-like receptor agonist, has been established as a model of Inflammatory skin diseases including psoriasis and atopic dermatitis. Dermal inflammatory changes and gene expression in mice treated with topical imiquimod mimic human psoriasis and dermatitis (van der Fits et al., 2009; Swindell et al., 2011). The effect of a set of compounds of the invention were tested in a mouse model of imiquimod-induced dermatitis, with topical tacrolimus and dexamethasone as comparators for assessing safety and efficacy relative to standard agents used to treat dermatitis in humans.
Commercial 0.1% tacrolimus ointment (ProTopic™[…]) was also used as an active comparator. Petrolatum containing 10% ethanol was used as a control treatment.
Female Balb/C mice (8 weeks old) were randomized and divided into groups of 5 animals each. Polyethylene collars were affixed to the mice to prevent them from easily scratching their ears. 5% imiquimod was applied to both ears of each mouse (20 microliters per ear) daily for 5 days, and then every other day for the full duration of the study. […] On day 7 after initiation of imiquimod, treatment with topical agents was started. Both ears of each mouse were treated with test ointments, with one compound per mouse.
Ear thickness and PASI assessments (Psoriasis Area and Severity Index, a standard psoriasis scoring system) were recorded twice per week throughout the study. The PASI score comprises the sum of evaluations of swelling, erythema and scaling on scales from 0 to 4; the maximum PASI score is 12, and the minimum, in unaffected skin, is 0).

[7] = Homo sapiens, Wst1, vehicle = 100, read-out: No Chemo: percent cell survival
[8] = compound 0.4 μM + doxorubicin 3.5 μM
[9] = compound 0.4 μM + oxaliplatin 100 μM
[10] = compound 0.4 μM + paclitaxel 50 μM
[11] = compound 0.4 μM + vincristine 100 nM

Row | SMILES | Reduction in viable THP-1 cell count (percent change) from 0 hours, Mean ± SE ([1]; Compound (0.1 μM), No LPS) [%] | Reduction in viable THP-1 cell count (percent change) from 0 hours, Mean ± SE ([1]; Compound (0.1 μM), Plus LPS) [%] | Reduction in viable THP-1 cell count (percent change) from 0 hours, Mean ± SE ([1]; Compound (1.0 μM), No LPS) [%] | Reduction in viable THP-1 cell count (percent change) from 0 hours, Mean ± SE ([1]; Compound (1.0 μM), Plus LPS) [%] | ability to inactivate pro-inflammatory THP-1 cells, in words (relative to benchmark AC) [1] | Viable cell percent change, Chronic/48-hour, Mean [2] [%] | activity relative to AC in the LPS-triggered THP-1 cell death assay, in words [2] | viability at 1 µM [3] [%] | viability at 5 µM [3] [%] | viability at 0.4 µM [4] [%] | viability at 0.4 µM [5, 7] [%] | Doxorubicin 3.5 μM: percent cell survival [5, 8] [%] | Oxaliplatin 100 μM: percent cell survival [5, 9] [%] | Paclitaxel 50 μM: percent cell survival [5, 10] [%] | Vincristine 100 nM: percent cell survival [5, 11] [%] | Ear thickness, Mean ± SEM [6] | Body Weight (mean ± SEM), Final ([6]; mouse, in vivo) [g] | Body Weight (mean ± SEM), Initial ([6]; mouse, in vivo) [g] | D BW ([6]; mouse, in vivo) [g] | PASI Score, Mean ± SEM [6] | further results
1 | COCCCCCCCCNc1ccnc2ccccc12 [CJ, N-(8-Methoxyoctyl)quinolin-4-amine] | −5.53 ± 3.89 | −30.15 ± 4.41 | −6.99 ± 1.55 | −41.62 ± 1.80 | higher activity than the active benchmark compound AC | 15.44 | more active than AC at the chronic/48-hour time point | 22.6 | 24.1 | 53.7 | 53.7 | 18.9 | 19.7 | 51.7 | 16.9 | – | – | – | – | – | –
2 | COc1ccc(OCCCCCCNc2ccnc3ccccc23)cc1 [Compound CX, N-[6-(4-Methoxyphenoxy)hexyl]quinolin-4-amine] | −8.00 ± 1.41 | −38.09 ± 0.41 | −9.20 ± 3.09 | −49.57 ± 2.44 | higher activity than the active benchmark compound AC | 8.50 | more active than AC at the chronic/48-hour time point | 25.1 | 20.7 | 45.9 | 45.9 | 21.7 | 22.2 | 48.2 | 38.1 | – | – | – | – | – | –
3 | c1ccc(Oc2ccc(Nc3ccnc4ccccc34)cc2)cc1 [DD, N-(4-Phenoxyphenyl)quinolin-4-amine] | – | – | – | – | – | 44.34 | – | 97.4 | 104 | – | – | – | – | – | – | 0.589 ± 0.018 | 20.7 ± 0.6 | 20.9 ± 0.8 | -0.2 | 7.450 ± 0.322 | –
4 | c1ccc(Oc2cccc(Nc3ccnc4ccccc34)c2)cc1 [DE, N-(3-Phenoxyphenyl)quinolin-4-amine] | – | – | – | – | – | 25.65 | – | 60.1 | 28.6 | – | – | – | – | – | – | 0.593 ± 0.016 | 20.5 ± 0.5 | 20.6 ± 0.5 | -0.1 | 7.250 ± 0.183 | viability at 2.5 µM ([4]; 2.5 μM): 42%; viability at 2.5 µM ([5]; Homo sapiens, compound 2.5 μM alone, Wst1, vehicle = 100, read-out: No Chemo: percent cell survival): 42%; Doxorubicin 3.5 μM: percent cell survival ([5]; compound 2.5 μM + doxorubicin 3.5 μM): 69.3%; Oxaliplatin 100 μM: percent cell survival ([5]; compound 2.5 μM + oxaliplatin 100 μM): 84.7%; Paclitaxel 50 μM: percent cell survival ([5]; compound 2.5 μM + paclitaxel 50 μM): 68.6%; Vincristine 100 nM: percent cell survival ([5]; compound 2.5 μM + vincristine 100 nM): 74%
5 | CCCCCCCCCCOc1cccc(CNc2ccnc3ccccc23)c1 [DU, N-[3-(Decyloxy)benzyl]quinolin-4-amine] | – | – | – | – | – | 17.10 | – | – | – | – | – | – | – | – | – | 0.607 ± 0.027 | 20.9 ± 0.5 | 20.4 ± 0.7 | – | 7.975 ± 0.621 | D BW (g) ([6]; mouse, in vivo): +0.5 g
6 | O=C(NCCCCCCCCNc1ccnc2ccccc12)c1cccnc1 [EF, N-[8-(Quinolin-4-ylamino)octyl]nicotinamide] | – | – | – | – | – | – | – | 15.6 | 23.7 | 16.7 | 16.7 | 31.3 | 21.7 | 24.3 | 23.4 | 0.613 ± 0.010 | 21.3 ± 0.2 | 21.5 ± 0.6 | -0.2 | 7.275 ± 0.199 | –
